Data: US20060004002A1 (priority 2004, published 2006)
pIC50: −log10 of the molar value.

Each compound was assayed against T1, Recombinant human Src (Homo sapiens, UniProt P12931) (assay: Src tyrosine kinase activity assay with poly E4Y and 32P-ATP). Conditions: poly E4Y, 32P-ATP; NI = no inhibition; read-out: IC50 Value Src.
T1 construct: made in house; host or cells: baculovirus-insect cell system
Type: biochemical
Experimental: Recombinant human Src was expressed using the baculovirus-insect cell system and purified as published (Budde et al., 1993 and 2000). Recombinant Csk and the FGF receptor (FGFr) were expressed as […] fusion proteins using the pGEX expression vector and E. coli, and purified as described (Sun & Budde, 1995).
The tyrosine kinase activity of Src, Csk and FGFr was determined using poly E4Y and ^32P-ATP. Briefly, enzymes were assayed in a reaction mixture […] consisting of 0.15 M EPPS-NaOH (pH 8.0) with 6 mM MgCl2, 0.2 mM γ^32P-ATP (0.2-0.4 mCi/μmol), 10% glycerol, 0.1% Triton X-100, and poly E4Y. Poly E4Y is a synthetic peptide whose phosphorylation is measured in this assay by the addition of the radioactively labeled phosphate from the ATP (Budde et al., 1995). […] When ATP was varied (0, 50, 100 and 250 μM), poly E4Y was kept constant at 150 μg/ml.

Row | Compound | pIC50
1 | CCOc1ccccc1-c1sc2c(NN=Cc3ccc(OC)c(O)c3)ncnc2c1COCC(O)CO (racemic) [Compound 56, 3-Hydroxy-4-methoxybenzaldehyde(7-((±)-4,5-dihydroxy-2-oxopentyl) (6-(2-ethoxyphenyl)thieno[3,2-d]pyrimidin-4-yl)hydrazone] | 6.92
2 | CCOc1ccccc1-c1sc2c(NN=Cc3ccc(OC)c(OCCN(CC)CC)c3)ncnc2c1C (single isomer, unassigned) [Compound 158] | 10.82
3 | Cc1c(-c2ccc(CN)cc2)sc2c(NN=Cc3cccs3)ncnc12 [Compound 4, 2-Thiophenecarboxaldehyde (6-(4-aminomethyl)phenyl-7-methylthieno[3,2-d]pyrimidin-4-yl)hydrazone] | 7.55
4 | COc1ccc(C=NNc2ncnc3c(C)c(-c4ccc(CN)cc4)sc23)cc1O [Compound 5, 3-Hydroxy-4-methoxybenzaldehyde (6-(4-aminomethyl)phenyl-7-methylthieno[3,2-d]pyrimidin-4-yl)hydrazone] | 7.49
5 | COc1ccc(C=NNc2ncnc3c(C)c(-c4ccccc4CN)sc23)cc1O [Compound 7, 3-Hydroxy-4-methoxybenzaldehyde (6-(2-aminomethyl)phenyl-7-methylthieno[3,2-d]pyrimidin-4-yl)hydrazone] | 6.92
6 | COc1ccc(C=NNc2ncnc3c(C)c(-c4ccccc4N)sc23)cc1O [Compound 13, 3-Hydroxy-4-methoxybenzaldehyde (6-(2-aminophenyl)-7-methylthieno[3,2-d]pyrimidin-4-yl)hydrazone] | 7.42
7 | Cc1c(CN2CCOCC2)sc2c(NN=Cc3cccnc3)ncnc12 [Compound 15, 3-Pyridinecarboxaldehyde (7-methyl-6-(morpholin-4-yl)methyllthieno[3,2-d]pyrimidin-4-yl)hydrazone] | 6.49
8 | Cc1nc[nH]c1C=NNc1ncnc2c(C)c(CN3CCOCC3)sc12 [Compound 16, 4-Methyl-5-imidazolecarboxaldehyde (7-methyl-6-(morpholin-4-yl)methyllthieno[3,2-d]pyrimidin-4-yl)hydrazone] | 6.21
9 | COc1ccc(C=NNc2ncnc3c(C)c(CNc4ccccc4)sc23)cc1O [Compound 18] | 6.26
10 | Cc1c(-c2cccc(C(N)=O)c2)sc2c(NN=Cc3cccs3)ncnc12 [Compound 20, 2-Thiophenecarboxaldehyde (6-(3-aminocarbonylphenyl)-7-methylthieno[3,2-d]pyrimidin-4-yl)hydrazone] | 7.27
11 | Cc1c(-c2cccc(C(N)=O)c2)sc2c(NN=Cc3cccnc3)ncnc12 [Compound 21, 3-Pyridinecarboxaldehyde (6-(3-aminocarbonylphenyl)-7-methylthieno[3,2-d]pyrimidin-4-yl)hydrazone] | 7.04
12 | Cc1c(-c2cccc(C(N)=O)c2)sc2c(NN=Cc3ccc(C(=O)O)cc3)ncnc12 [Compound 22, 4-Carboxybenzaldehyde (6-(3-aminocarbonylphenyl)-7-methylthieno[3,2-d]pyrimidin-4-yl)hydrazone] | 7.39
13 | Cc1c(-c2ccc(C(N)=O)cc2)sc2c(NN=Cc3ccc(C(=O)O)cc3)ncnc12 [Compound 26, 4-Carboxybenzaldehyde (6-(4-aminocarbonylphenyl)-7-methylthieno[3,2-d]pyrimidin-4-yl)hydrazone] | 7.44
14 | COc1ccc(C=NNc2ncnc3c(C)c(-c4cccc(C#N)c4)sc23)cc1O [Compound 27, 3-Hydroxy-4-methoxybenzaldehyde (6-(3-cyanophenyl)-7-methylthieno[3,2-d]pyrimidin-4-yl)hydrazone] | 7.24
15 | Cc1c(-c2cccc(C#N)c2)sc2c(NN=Cc3cccs3)ncnc12 [Compound 28, 2-Thiophenecarboxaldehyde (6-(3-cyanophenyl)-7-methylthieno[3,2-d]pyrimidin-4-yl)hydrazone] | 5.85
16 | Cc1c(-c2cccc(C#N)c2)sc2c(NN=Cc3cccnc3)ncnc12 [Compound 29, 3-Pyridinecarboxaldehyde (6-(3-cyanophenyl)-7-methylthieno[3,2-d]pyrimidin-4-yl)hydrazone] | 7.57

The remaining compounds from weak to strong by pIC50, led by results:

Row | pIC50 | Compound
17 | 7.59 | COc1ccc(C=NNc2ncnc3c(C)c(-c4cccc(CN5CCOCC5)c4)sc23)cc1O [Compound 17, 3-Hydroxy-4-methoxybenzaldehyde (7-methyl-6-(3-(morpholin-4-yl)methyl)phenylthieno[3,2-d]pyrimidin-4-yl)hydrazone]
18 | 7.59 | Cc1c(-c2ccc(C(N)=O)cc2)sc2c(NN=Cc3cccs3)ncnc12 [Compound 25, 2-Thiophenecarboxaldehyde (6-(4-aminocarbonylphenyl)-7-methylthieno[3,2-d]pyrimidin-4-yl)hydrazone]
19 | 7.62 | 4-Carboxybenzaldehyde (6-(4-aminomethyl)phenyl-7-methylthieno[3,2-d]pyrimidin-4-yl)hydrazone [Compound 2]
20 | 7.62 | Cc1c(-c2ccc(CN)cc2)sc2c(NN=Cc3cccnc3)ncnc12 [Compound 3, 3-Pyridinecarboxaldehyde (6-(4-aminomethyl)phenyl-7-methylthieno[3,2-d]pyrimidin-4-yl)hydrazone]
21 | 7.70 | COc1ccc(C=NNc2ncnc3c(C)c(-c4ccc(C(N)=O)cc4)sc23)cc1O [Compound 23, 3-Hydroxy-4-methoxybenzaldehyde (6-(4-aminocarbonylphenyl)-7-methylthieno[3,2-d]pyrimidin-4-yl)hydrazone]
22 | 7.72 | Cc1c(-c2ccc(N)cc2)sc2c(NN=Cc3cccs3)ncnc12 [Compound 9, 2-Thiophenecarboxaldehyde (6-(4-aminophenyl)-7-methylthieno[3,2-d]pyrimidin-4-yl)hydrazone]
23 | 7.80 | Cc1c(-c2cccc(CN)c2)sc2c(NN=Cc3cccnc3)ncnc12 [Compound 6, 3-Pyridinecarboxaldehyde (6-(3-aminomethyl)phenyl-7-methylthieno[3,2-d]pyrimidin-4-yl)hydrazone]
24 | 7.85 | COc1ccc(C=NNc2ncnc3c(C)c(-c4cccc(C(N)=O)c4)sc23)cc1O [Compound 19, 3-Hydroxy-4-methoxybenzaldehyde (6-(3-aminocarbonylphenyl)-7-methylthieno[3,2-d]pyrimidin-4-yl)hydrazone]
25 | 7.89 | Cc1c(-c2ccc(C(N)=O)cc2)sc2c(NN=Cc3cccnc3)ncnc12 [Compound 24, 3-Pyridinecarboxaldehyde (6-(4-aminocarbonylphenyl)-7-methylthieno[3,2-d]pyrimidin-4-yl)hydrazone]
26 | 8.02 | Cc1c(-c2ccc(N)cc2)sc2c(NN=Cc3cccnc3)ncnc12 [Compound 8, 3-Pyridinecarboxaldehyde (6-(4-aminophenyl)-7-methylthieno[3,2-d]pyrimidin-4-yl)hydrazone]
27 | 8.06 | COc1ccc(C=NNc2ncnc3c(C)c(-c4ccc(N)cc4)sc23)cc1O [Compound 10, 3-Hydroxy-4-methoxybenzaldehyde (6-(4-aminophenyl)-7-methylthieno[3,2-d]pyrimidin-4-yl)hydrazone]
28 | 8.31 | Cc1c(-c2cccc(N)c2)sc2c(NN=Cc3cccnc3)ncnc12 [Compound 11, 3-Pyridinecarboxaldehyde (6-(3-aminophenyl)-7-methylthieno[3,2-d]pyrimidin-4-yl)hydrazone]
29 | 8.92 | COc1ccc(C=NNc2ncnc3c(C)c(-c4cccc(N)c4)sc23)cc1O [Compound 12, 3-Hydroxy-4-methoxybenzaldehyde (6-(3-aminophenyl)-7-methylthieno[3,2-d]pyrimidin-4-yl)hydrazone]
